How the values were obtained:
MD1 TDMs = assay: Desmin immunostaining: myogenic fusion index and myotube diameter; type: cell-based, human
Procedure: (§1) TDMs were cultured as previously described^1. After 4 days in differentiation medium (MDM), cells were transfected with a combination of two siRNAs (SEQ ID NO: 40 and 43) targeting MSI2 transcripts (final concentration 100 nM) using Lipofectamine RNAiMAX transfection reagent (Invitrogen, Madrid, Spain)) following the manufacturer's recommendations. After 48 h, the medium containing the siRNAs was replaced by fresh MDM. 24 h later, cells were collected. As a control, the same protocol was performed using 100 nM of a siRNA with a scrambled sequence (Cat #4390843 for negative control). Gapmers against MSI2 and agomiR-107 were transfected following the same protocol using two different concentrations, 30 and 150 nM in the case of Gapmers and 100 and 300 nM in the case of agomiR-107. To treat cells with the small molecule Ro-08-2750 (Tocris Cat. No. 2272, Bristol, UK)), cells were cultured as before. Briefly, after 96 h in MDM, the medium was supplemented with Ro-08-2750 at a final concentration of 10 μM (0.8% DMSO) or with the vehicle, DMSO 0.8%, for 48 h. Then cells were collected for further analyses.
(§2) Desmin immunostaining and fusion index and diameter determination were performed as previously described^3. For MSI2 immunodetection, 3.5×10^4 fibroblasts/well were seeded in 24 well plates. After 7 days of differentiation into myotubes, cells were fixed with 4% paraformaldehyde (PFA) for 15 min. After 3 washes with PBS-T (0.1%×-TritonX-100 in PBS 1×) cells were blocked (PBS-T, 1% BSA, 5% normal goat serum) for 1 h and incubated with rabbit anti-MSI2 antibody (1:100, Abcam, EP1305Y, Cambridge, UK) in blocking buffer for 48 h at 4° C. After three washes with PBS-T, cells were incubated for 1 h with goat anti-rabbit-FITC IgG (1:200, Sigma-Aldrich, St. Louis, Missouri) in blocking buffer. Finally, cells were washed thrice with PBS 1× and were counterstained and mounted with VECTASHIELD® mounting medium containing DAPI (Vector Laboratories, London, UK) to detect the nuclei. Images were taken in a confocal microscope LSM800 (Zeiss) at 400× magnification.

LC3 = LC3 immunostaining and LC3 puncta quantification; type: cell-based, human; conditions: DM1 myoblasts; 10 μM
Procedure: For LC3B immunodetection, cells were differentiated in MDM for 7 days (3×10^5 cells/well in 24-well plates). After 48 h of gapmer treatment, cells were fixed with 4% PFA in PBS for 15 min at room temperature. After fixation, cells were permeabilized with methanol 100% for 15 min at −20° C. and blocked with blocking buffer (PBS 1×, 0.5% BSA, 1% goat serum) for 1 h at room temperature. Cells were incubated overnight (O/N) with rabbit anti-LC3B (1:200, ab51520; Abcam, Cambridge, UK) diluted in blocking buffer. Then, samples were incubated with goat anti-rabbit IgG (H+L) Alexa Fluor Plus 594 (1:200; Invitrogen, Carlsbad, CA, USA) for 2 h. Between antibodies, cells were washed three times with PBS 1×. Finally, cells were washed three times with PBS and mounted in Vectashield (Vector Laboratories, London, UK) with […] DAPI.
Image analyses of LC3-stained myotubes were performed using the Ifdotmeter software following the authors' recommendations (see Rodríguez-Arribas, M., et al. (2016). IFDOTMETER: A New Software Application for Automated Immunofluorescence Analysis. J. Lab. Autom. 21, 246-259). Briefly, the quantification of the number of LC3 dots or LC3 puncta was performed with 15-20 images per condition. Total LC3 dots per image were normalized relative to the total area corresponding to all myotubes observed in each image. Myotube area was measured by using ImageJ software. Data were expressed as the number of LC3 dots/mm2.

DM1-14 and DM1-16 lines = assay: Fusion capacity of primary DM1 myoblasts (Desmin immunostaining); type: cell-based, human; conditions: primary myoblasts cultured for 7 days; 10 μM
Procedure: To treat primary myoblasts, CNT-10, DM1-14, and DM1-16 with the small molecule Ro 08-2750 cells were cultured as before. […] Information about biopsy donors is compiled in Table 1.
as §2

miR-7 = miR-7 quantification by RT-qPCR in MD1 cells; type: cell-based, human
MSI2 = MSI2 (Homo sapiens, UniProt Q96DH6); assay: MSI2 protein quantification by Western blot; type: cell-based; set-up: endogenous in cells; host or cells: DM1 patient-derived transdifferentiated myotubes (TDMs, immortalized skin fibroblasts with conditional MyoD) and immortalized DM1 myoblasts; conditions: MD1 TDMs; Ro-08-2750 at 10 μM or the agomiR (100 and 300 nM)
MSI2, sequence (Q96DH6 whole entry): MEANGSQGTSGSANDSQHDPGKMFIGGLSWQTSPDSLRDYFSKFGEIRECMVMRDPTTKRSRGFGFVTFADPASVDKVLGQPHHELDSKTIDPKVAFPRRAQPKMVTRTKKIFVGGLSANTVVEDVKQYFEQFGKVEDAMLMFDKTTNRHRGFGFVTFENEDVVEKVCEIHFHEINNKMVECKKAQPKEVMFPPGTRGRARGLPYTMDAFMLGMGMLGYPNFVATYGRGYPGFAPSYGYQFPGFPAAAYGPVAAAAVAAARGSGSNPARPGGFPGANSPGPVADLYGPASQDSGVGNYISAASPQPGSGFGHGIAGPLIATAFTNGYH
Procedure: as §1
Protein extraction, quantification and immunodetection were performed as previously described^1,3. […] Quantification was performed using ImageJ software (NIH).

Cc1cc2nc3c(=O)[nH]c(=O)nc-3n(C)c2cc1C=O [Ro 08-2750, 2,3,4,10-Tetrahydro-7,10-dimethyl-2,4-dioxobenzo[g]pteridine-8-carboxaldehyde]
diameter of the cells (MD1 TDMs; DM1 TDMs, Ro 08-2750 10 μM): improved significantly
fusion index (MD1 TDMs; MD1 TDMs, Ro-08-2750 (10 μM) or agomiR-107): significantly improved
autophagic markers (LC3 puncta, ATG4A, ATG7) (LC3): reverse autophagic markers to a non-DM1 state
impaired fusion capacity phenotype (DM1-14 and DM1-16 lines): dramatically reversed
expression of miR-7 (miR-7; 10 μM, all cell lines (immortalized DM1 myoblasts, DM1-14, DM1-16)): rescued
miR-7 biogenesis (miR-7; DM1 TDMs, 3 μM): significantly de-repress
MSI2 levels at protein level (MSI2): significantly reduced

— patent US20250270549A1, “MSI2 AS A THERAPEUTIC TARGET FOR THE TREATMENT OF MYOTONIC DYSTROPHY” (UNIVERSITAT DE VALÈNCIA, priority 2021, published 2025)
